Among the data in article PMC12040169 (PLOS Biology, 2025) are viability values, retold here.

The data set in a line: in vitro. Particulars: human, hela cells, % viability.
For `O=C1CC[C@@H](NCc2ccoc2)[C@H](c2cc(F)cc(F)c2)N1` [CBK282912], the viability at 28.5 h, 10 µM came out at 96%.
The figure for `Cn1cc(CN[C@@H]2CCC(=O)N[C@H]2c2cc(F)cc(F)c2)cn1` [CBK282913] is 100%; for `Cc1cc(C)c(-n2cccn2)c(CN2CCC(CO)C2)c1` (stereo not shown) [CBK282915] it is 87.1%; for `O=C1NCC2(CCN(C(=O)C3CC3)CC2)Oc2ccccc21` [CBK282918] it is 101%.
The figure for `O=C1NCC2(CCN(C(=O)c3ccco3)CC2)Oc2ccccc21` [CBK282919] is 103%.
For `CC(=O)N1c2ccc(C(O)CN3CCCC(C)C3)cc2CC1C` (stereo not shown) [CBK282922], the viability at 28.5 h, 10 µM was 96.5%.
The figure for `CC(=O)N1CCc2cc(C(O)CN3CCCC4CCCCC43)ccc21` (stereo not shown) [CBK282924] is 93.6%.
As for `O=C(c1ccccc1F)N1CCCC1Cn1c(=O)oc2ccccc21` (stereo not shown) [CBK282926], the figure is 97.5%.
As for `COc1ccc([C@H]2CN(Cc3ccccc3)C[C@@H]2NC(C)=O)cc1` [CBK282930], the figure is 92.1%.
Turning to `CC(=O)N1CCc2cc(C(=O)CN3CCC(c4ccccc4)C3)ccc21` (stereo not shown) [CBK282931], the viability at 28.5 h, 10 µM worked out at 98%.
As for `O[C@@H]1CN(Cc2ccccc2F)CC[C@H]1N1CCCC1` [CBK282934], the figure is 96.9%; as for `OCCN(Cc1cccnc1)Cc1cccn1-c1ccccc1Cl` [CBK282936], 89.7%; as for `COc1ccc(C(=O)NC2CCCNC2=O)s1` (stereo not shown) [CBK282938], 88.4%.
As to `Cc1ccc(C(O)CN(C)Cc2c(C)nn(C)c2C)c(C)c1` (stereo not shown) [CBK282939], the viability at 28.5 h, 10 µM is 84.7%.
The figure for `CCC(NC(=O)c1ccc(C(C)(C)C)[nH]c1=O)c1ccc(OC)cc1` (stereo not shown) [CBK282940] is 87.8%.
As for `CN1CCC(CN(C)CC2CCCN(Cc3ccccc3)C2)C1` (stereo not shown) [CBK282946], the figure is 90.7%.
On to `CCCn1ncc(CN[C@@H]2CCC[C@H]2Cc2cc(C)no2)c1C` [CBK282948], for which the viability at 28.5 h, 10 µM is 88.7%.
Consider `Fc1ccccc1CN(CCCn1ccnc1)Cc1ccco1` [CBK282952], for which the viability at 28.5 h, 10 µM was determined as 109%.
Turning to `Cc1c(CN(Cc2cccc(F)c2)CC2CCCO2)cnn1C` (stereo not shown) [CBK282953], the viability at 28.5 h, 10 µM was determined as 89.9%.
For `OC12CCCCC1CN(CC1=Cc3ccccc3OC1)CC2` (stereo not shown) [CBK282954], the viability at 28.5 h, 10 µM came to 86.3%.
As for `CCn1cc(CN2CCC(O)(c3ccc(C)cc3)CC2)c(C)n1` [CBK282955], the figure is 89.2%; as for `CCn1ncc(CN2CCC(O)(c3ccc(C)cc3)CC2)c1C` [CBK282956], 90.2%; as for `Cc1cc(C)n(CC(O)CN(Cc2ccccc2)Cc2ccco2)n1` (stereo not shown) [CBK282957], 95.7%.
As for `COCCCN(Cc1ccccn1)Cc1c(F)cccc1F` [CBK282959], the figure is 93.5%.
In the case of `Cn1cncc1CN(CCCn1ccnc1)Cc1ccccc1F` [CBK282960], the viability at 28.5 h, 10 µM worked out at 85%.
With `COCCCN(Cc1ccc(F)c(F)c1)Cc1ccccn1` [CBK282961], the viability at 28.5 h, 10 µM is 90.7%.
Regarding `Cc1cc(C2CCCCCN2Cc2c(C)nn(C)c2C)on1` (stereo not shown) [CBK282967], the viability at 28.5 h, 10 µM is 99.7%.
Regarding `CCC(=O)N1CCC(c2nc(Cc3cccs3)no2)C1` (stereo not shown) [CBK282968], the viability at 28.5 h, 10 µM is 88.5%.
As for `Cc1cc(C[C@@H]2COC[C@H]2NCc2ccccc2Cl)on1` [CBK282969], the figure is 94.8%; as for `O=C(CCn1cncn1)N[C@H]1C2CCCCC2[C@@H]1c1ccccc1` (stereo partly shown) [CBK282970], 100%.
The figure for `CCCn1cc(CN2C3CCC2CC(O)(c2ccc(F)cc2)C3)cn1` (stereo not shown) [CBK282971] is 91.5%.
The figure for `CCn1ncc(CN2C3CCC2CC(O)(c2ccc(F)cc2)C3)c1C` (stereo not shown) [CBK282973] is 100%; for `COCCCN(Cc1ccccn1)Cc1ccc(F)cc1F` [CBK282974] it is 103%; for `COCCCN(Cc1cc(F)cc(F)c1)Cc1ccccn1` [CBK282975] it is 100%.
Regarding `OCC[C@H]1CN2CCCC2CN1Cc1cccn1-c1ccccc1F` (stereo partly shown) [CBK282977], the viability at 28.5 h, 10 µM came to 93%.
As for `Cc1cc(C)n(CC(O)CN(Cc2ccco2)Cc2cccs2)n1` (stereo not shown) [CBK282979], the figure is 100%.
On to `Cc1cc2ccccc2n1CCCNC(=O)c1ccc(=O)n(C)c1` [CBK282982], for which the viability at 28.5 h, 10 µM came out at 104%.
As for `COc1ccc(CN2CCCC(c3nc(C)n4ccccc34)C2)cc1` (stereo not shown) [CBK282984], the figure is 94.6%; as for `OCC[C@H]1CN2CCCC2CN1Cc1cccn1-c1cccc(F)c1` (stereo partly shown) [CBK282985], 86.1%.
Take `Cn1cncc1CN(CCc1ccccc1)Cc1ccncc1` [CBK282992]: the viability at 28.5 h, 10 µM is 87.4%.
On to `Cc1cc(C[C@@H]2COC[C@H]2NCc2c(F)cccc2Cl)on1` [CBK282994], for which the viability at 28.5 h, 10 µM was 83.4%.
The figure for `OC12CCCCC1CN(Cc1nc3ccccc3[nH]1)CC2` (stereo not shown) [CBK282995] is 93.9%; for `CC(=O)N1CCC(c2nc(Cc3cccs3)no2)C1` (stereo not shown) [CBK282998] it is 108%.
As for `Cc1cc(C[C@@H]2COC[C@H]2NCc2cccs2)on1` [CBK282999], the figure is 95.8%; as for `CC(=O)NCC1CCC(C(NC(=O)C2CC2)c2ccccn2)CC1` (stereo not shown) [CBK283000], 87.5%; as for `O[C@@]1(c2ccccn2)CC[C@H]2CN(Cc3ccccc3F)C[C@H]21` [CBK283001], 94.3%.
With `CC(=O)OCc1ccc(CN2CCCCCC2c2cc(C)on2)o1` (stereo not shown) [CBK283004], the viability at 28.5 h, 10 µM stood at 88.2%.
The figure for `COc1cccc(CN[C@@H]2CCC[C@H]2Cc2cc(C)no2)c1` [CBK283006] is 109%; for `Cc1cc(CN(C)Cc2cnn(Cc3ccccc3)c2C)n[nH]1` [CBK283017] it is 94.6%; for `OCCN(Cc1cccnc1)Cc1cccn1-c1cccc(F)c1` [CBK283018] it is 81.5%.
As for `CN(C)CCN(Cc1nc2ccccc2[nH]1)Cc1cccs1` [CBK283020], the figure is 85.1%; as for `CC(C)N1CCC(N(C)Cc2nc3ccccc3[nH]2)CC1` [CBK283021], 105%.
The figure for `Cn1cncc1CN1C[C@@H]2CCCN2C[C@@H]1Cc1ccccc1` [CBK283027] is 91.9%.
Take `C=CCn1ncc(CN2CCC3(O)CCCCC3C2)c1C` (stereo not shown) [CBK283029]: the viability at 28.5 h, 10 µM came out at 100%.
Take `Fc1ccccc1CN(CCCn1ccnc1)CC1CCOC1` (stereo not shown) [CBK283031]: the viability at 28.5 h, 10 µM came to 104%.
The figure for `Cc1ccsc1CN(Cc1cncn1C)CC(C)O` (stereo not shown) [CBK283033] is 85.7%; for `CCCC(=O)N1CCC(c2nc(Cc3cccs3)no2)C1` (stereo not shown) [CBK283034] it is 88%.
The figure for `CCn1cc(CN(CCN(C)C)Cc2cccs2)c(C)n1` [CBK283037] is 101%.
Take `CCC1c2ccc(C)n2CCN1Cc1cnc(C)n1C` (stereo not shown) [CBK283038]: the viability at 28.5 h, 10 µM worked out at 105%.
For the compound `Cn1cncc1CN(CCCn1ccnc1)Cc1ccccc1Cl` [CBK283041], the viability at 28.5 h, 10 µM was 84.8%.
As for `OCCN(Cc1cccnc1)Cc1cccn1-c1ccc(F)cc1F` [CBK283042], the figure is 90.4%; as for `O=C(NCCO)C1(Cc2ccc(-c3ccccc3)cc2)CCNC1` (stereo not shown) [CBK283043], 83.9%; as for `Cn1ccc(C2CCCCCN2C(=O)Cc2cccs2)n1` (stereo not shown) [CBK283047], 86.5%.
For the compound `CC(C)c1cc(C(=O)N2CCCCCC2c2ccn(C)n2)no1` (stereo not shown) [CBK283048], the viability at 28.5 h, 10 µM was 85.3%.
The figure for `CCC(=O)N1CCCc2cc(C(O)CN3CCCC(C)C3)ccc21` (stereo not shown) [CBK283049] is 89.2%; for `CC(C)c1cc(C(=O)N2C[C@H](C)N(Cc3ccco3)C[C@@H]2C)on1` [CBK283053] it is 90.9%.
The figure for `CC(C)[C@@H]1C[C@H](C(F)(F)F)n2nc(C3CCCNC3)cc2N1` (stereo partly shown) [CBK283056] is 98.6%; for `O=C(c1ccccc1)N1CCCC(c2nnc(-c3cccs3)o2)C1` (stereo not shown) [CBK283059] it is 103%; for `CCC(=O)N1CCCC(c2nnc(-c3cccs3)o2)C1` (stereo not shown) [CBK283060] it is 92%.
As to `CCc1cc(CNS(=O)(=O)c2cc(C)ccc2F)on1` [CBK283064], the viability at 28.5 h, 10 µM worked out at 108%.
As for `CC(C)c1cc(C(=O)NC2CCOc3ccccc32)no1` (stereo not shown) [CBK283065], the figure is 93.9%; as for `Cc1n[nH]c(C)c1CNC(=O)c1cccc2c(C)c(C)[nH]c12` [CBK283068], 88.9%.
The figure for `Cc1cc(S(=O)(=O)Nc2ccnn2C(C)C)ccc1F` [CBK283069] is 96.9%; for `Cc1nc(C)c(C(=O)NCCN2CC(C)CC(C)C2)s1` (stereo not shown) [CBK283071] it is 95.1%; for `COCc1ccc(C(=O)N2CCC(c3cc4cnccc4[nH]3)CC2)o1` [CBK283073] it is 90.9%.
The figure for `Cc1c(C(=O)NC(C)c2cc3ccccc3o2)cnn1C` (stereo not shown) [CBK283074] is 99.3%; for `Cc1ccc2oc(CN3CCn4cnnc4C3)c(C)c2c1` [CBK283075] it is 109%.
On to `Cc1nn(C)c(C)c1C(C)NC(=O)C1CC2C=CC1C21CC1` (stereo not shown) [CBK283076], for which the viability at 28.5 h, 10 µM was determined as 81.5%.
As for `Cc1cc2cc(NC(=O)CCc3c(C)n[nH]c3C)ccc2o1` [CBK283077], the figure is 84.2%; as for `Cc1nn(C)c(C)c1CN(C)C(=O)CCC1CCCO1` (stereo not shown) [CBK283078], 99.7%.
The figure for `Cc1cc(C)n(CC(=O)Nc2ccccc2-n2ccnc2)n1` [CBK283079] is 101%.
As for `CN1CCC[C@@H]2[C@H]1[C@@H](c1ccc(F)cc1)CN2C(=O)c1ccccn1` [CBK283081], the figure is 103%.
In the case of `CC(=O)N1CCC(O)(Cn2c(C3CC3)cc3cccnc32)CC1` [CBK283082], the viability at 28.5 h, 10 µM worked out at 111%.
The figure for `CN(C)CCN(Cc1ccncc1)Cc1ccc(F)cc1F` [CBK283094] is 98.2%; for `CN(C)CCN(Cc1ccncc1)Cc1cc(F)ccc1F` [CBK283095] it is 88%.
